Like-named read-outs stand apart in the source and are kept apart here.
Assays:
[1] = test system: ovarian carcinoma (SKOV3); assay: In vitro cytotoxicity against SKOV3; assay type: cell-based, human
[2] = test system: breast carcinoma (MCF-7); assay: In vitro cytotoxicity against MCF-7; assay type: cell-based, human
[3] = test system: MCF-10A; normal human epithelial breast cell line; assay: Proliferation of non-tumoral cell line MCF-10A; assay type: cell-based; settings: Table 3, non-cancerous cell line; read-out: (IC50 ± SD) μM MCF-10A
Protocol: In addition, to verify the selectivity between cancer and normal cell line, the effects of these compounds on the proliferation of non-tumoral cell line (MCF-10A; normal human epithelial breast cell line) were also determined. […] In order to gain some more insight in the structure-activity relationship of the synthesized trans-Pt(II) complexes, the chemical descriptors of them such as surface area, volume, hydration energy, logP (measure of lipophilicity), refractivity (measuring the total polarizability of a mole of a compound), polarizability and mass were calculated using Hyperchem 8 software. The greater logP (lipophilicity) of complex 3a confirmed the importance of this descriptors for the cytotoxic activity of the trans-Pt(II) complexes.

[4] = test system: lung carcinoma (A549); assay: In vitro cytotoxicity against A549
[5] = test system: SKOV3 cells; assay: Intracellular ROS determination by flow cytometry (DCFH-DA); assay type: cell-based, human; settings: SKOV3, 10, 20, 40 μM
Protocol: Changes in ROS levels were expressed as a ratio of the mean fluorescence intensity (MFI) in each condition divided by the basal intensity of the ROS at the untreated cells (negative controls, MFI0).
Flow cytometry was used for determination of cellular reactive oxygen species (ROS) in SKOV3 cell line after treatment with complex 3a. In this highly sensitive method, to consider ROS formation, SKOV3 cells were treated with complex 3a and H2O2 (positive control) and stained with 2′,7′-Dichlorodihydrofluorescein diacetate (DCFH-DA), a cell-permanent non-fluorescent dye which is oxidized by cellular ROS and produce 2′,7′-dichlorofluorescein (DCF) fluorescent component. The intensity of DCF is a direct estimate of the amount of ROS within the cells.

[6] = test system: MCF-7 cells; settings: for percentages of apoptotic cells (Annexin V+ cells): 48 hours incubation; for living cells (Annexin V−/7-AAD− cells): 48 hours; for percentage of the cells in early apoptotic phase: 48 h
Protocol: Representative scatter plots show apoptosis of MCF-7 cells after 48 hours of incubation with different concentrations of (20, 40, and 80 mM) using the Annexin V-PE/7AAD detection kit. The percentages of apoptotic cells (Q2: late apoptotic and Q3: early apoptotic) were determined in Annexin V cells. Q1: necrotic cells, Q2: late apoptotic cells, Q3: early apoptotic cells, and Q4: living cells.

[7] = test system: pCDNA plasmid; assay: Electrophoresis mobility shift assay, pCDNA plasmid; assay type: binding; settings: 100 to 800 uM, 24 h and 48 h
Protocol: FIG. 5 illustrates an electrophoresis mobility shift assay for platinum compounds for an embodiment of the present invention. A pCDNA plasmid in the circular form was incubated with cisplatin, 1b, and 2a at different concentrations for 24 h (A) and 48 h (B).
Electrophoresis mobility shift assay is a common method that is applied to show the interaction of compounds with DNA. […] The shift was more notable with an increase in the concentrations from 100 to 800 uM, especially in the case of complex 2a; however, this compound at a higher concentration seemed to interact with the KBC loading dye and was trapped in the wells.

[8] = test system: pGEM-FT plasmid; assay: Electrophoresis mobility shift assay, pGEM-FT plasmid; assay type: binding; settings: 24 h, compared to cisplatin positive control
Protocol: FIG. 10 is a mobility shift assay of 1a compound. pGEM-FT plasmid in circular form was incubated with different concentrations of cisplatin (positive controls) as well as compound 1a for 24 h for additional embodiments of the present invention.
Here, comet assay was used as a valuable method to predict the genotoxic effect of new synthesized trans-Pt(II) complexes on cancerous cells. In this single cell microgel electrophoresis method, following the DNA damage, the migration of chromosomal DNA from the nucleus increases and resembles the shape of a tail or comet. The longer tails display the more genotoxicity, while untreated cells as un-fragmented cells, represent a little or no tail. […] It could also be seen that compared to the untreated control, complex 3a could make a nick in DNA and subsequently slightly shift the mobility of the plasmid in a dose dependent manner. These observations confirm the direct interaction of complex 3a with DNA through genotoxic effect as observed in comet assay.
(§1) This is also effected by differences in the concentrations of complex 3a in comparison to untreated cells (negative control). pGEM-FT plasmid in circular form was incubated with different concentrations of cisplatin (positive controls) as well as complex 3a for 24 h.

[9] = test system: MCF-7 cells; assay: Comet assay (genotoxicity); assay type: cell-based, human
Excerpt: Here, comet assay was used as a valuable method to predict the genotoxic effect of new synthesized trans-Pt(II) complexes on cancerous cells. In this single cell microgel electrophoresis method, following the DNA damage, the migration of chromosomal DNA from the nucleus increases and resembles the shape of a tail or comet. The longer tails display the more genotoxicity, while untreated cells as un-fragmented cells, represent a little or no tail.
as §1

[10] = test system: MCF-7 cells; settings: MCF-7, compared to untreated cells
Excerpt: Quantitation of DNA content using flow cytometry or cell cycle analysis, is a basic method which is commonly used to assess the mechanisms of antiproliferative effects of anticancer drugs. In this method, a fluorescent DNA binding dye (in the present study: propidium iodide, PI) is used to stain DNA and measure the amount of DNA present in the cell. The cells in the G2 phase are expected to absorb approximately twice the amount of color compared to the cells in G1 as their DNA content has been doubled during S phase. Therefore, the cells in S phase have more DNA than G1 cells but less than G2 ones.

[11] = Table 1, Pt(II) isocyanide series 1a-c, 2a-c, read-out: IC50 (μM ± SD) SKOV3
[12] = Table 3, trans-Pt(II) thiolate series A, 3a-e, read-out: (IC50 ± SD) μM SKOV3
[13] = gold(I) complex study, read-out: IC50 SKOV3
[14] = Table 1, Pt(II) isocyanide series 1a-c, 2a-c, read-out: IC50 (μM ± SD) MCF-7
[15] = Table 3, trans-Pt(II) thiolate series A, 3a-e, read-out: (IC50 ± SD) μM MCF-7
[16] = gold(I) complex study, read-out: IC50 MCF-7
[17] = read-out: (IC50 ± SD) μM A549, Table 3, trans-Pt(II) thiolate series A, 3a-e and ligands
[18] = read-out: IC50 (μM ± SD) A549, Table 1, Pt(II) isocyanide series 1a-c, 2a-c
[19] = read-out: IC50 A549, gold(I) complex study
[20] = Homo sapiens, A549, read-out: (IC50 ± SD) μM A549

N.N.[Cl][Pt][Cl] [Cisplatin, reference compound]
IC50 [1, 11]: 14.6 ± 1.3 µM
IC50 [1, 12]: 14.5 µM
IC50 [1, 13]: 12.4 µM
IC50 [2, 14]: 13.4 µM
IC50 [2, 15]: 11.6 µM
IC50 [2, 16]: 11.5 µM
IC50 [3]: 29.5 ± 1.03 µM
IC50 [4, 17]: 9.71 µM
IC50 [4, 18]: 6.68 ± 0.72 µM
IC50 [4, 19]: 7.62 µM

OO [H2O2, reference compound]
ROS production (MFI/MFI0) [5]: induce ROS production within 20 minutes

C=CCP(c1ccccc1)c1ccccc1 [PPh2allyl, allyldiphenylphosphine]
IC50 [4, 20]: > 100 µM

Sc1nc2ccccc2[nH]1 [Sbi, benzimidazole-2-thiol]
IC50 [4, 20]: > 100 µM

Sc1nc2ccccc2s1 [Sbt, benzothiazole-2-thiol]
IC50 [4, 20]: > 100 µM

Sc1ccccn1 [Spy, pyridine-2-thiol]
IC50 [4, 20]: > 100 µM

FC(F)(F)c1ccc(S)nc1 [Spy-5-CF3, 5-(trifluoromethyl)-pyridine-2-thiol]
IC50 [4, 20]: > 100 µM

Sc1ncccn1 [SpyN, pyrimidine-2-thiol]
IC50 [4, 20]: > 100 µM

[CH3][Pt-2]([CH3])([C]#[N+]Cc1ccccc1)[C]#[N+]Cc1ccccc1 [complex 1b, [Me2Pt(CNR)2] (R=benzyl)]
IC50 [1, 11]: 15.9 ± 1.25 µM
IC50 [2, 14]: 12.5 µM
percentages of apoptotic cells (Annexin V+ cells) ([6]; 80 uM): 77.22%
percentages of apoptotic cells (Annexin V+ cells) [6]: 27.36%
living cells (Annexin V−/7-AAD− cells) ([6]; highest concentration (80)): 15.3%
living cells (Annexin V−/7-AAD− cells) ([6]; lowest concentration (20)): 72.1%
shift in the mobility of the plasmid [7]: obvious shift in the mobility of the plasmid
IC50 [4, 18]: 21.4 ± 2.18 µM

[CH3][Pt-2]([CH3])([C]#[N+]C1CCCCC1)[C]#[N+]C1CCCCC1 [complex 1c, [Me2Pt(CNR)2] (R=cyclohexyl)]
IC50 [1, 11]: 44.6 ± 1.17 µM
IC50 [2, 14]: 68.3 ± 3.21 µM
IC50 [4, 18]: 50.8 ± 1.64 µM

[C](#[N+]Cc1ccccc1)[Au-][S]c1ncccn1 [complex 2]
IC50 [1, 13]: 6.26 µM
IC50 [2, 16]: 6.14 µM
induction of cellular apoptosis ([6]; gold(I) complex study, MCF-7): induces apoptosis in cancerous cells in a dose-dependent manner
IC50 [4, 19]: 7.8 µM

Cc1cc[c]([Pt-2]([C]#[N+]C(C)(C)C)([C]#[N+]C(C)(C)C)[c]2ccc(C)cc2)cc1 [complex 2a, [(p-tolyl)2Pt(CNR)2] (R=t-butyl)]
IC50 [1, 11]: 18.5 ± 2.38 µM
IC50 [2, 14]: 11.1 ± 0.59 µM
shift in the mobility of the plasmid [7]: obvious shift in the mobility of the plasmid
IC50 [4, 18]: 19.2 ± 2.59 µM

Cc1cc[c]([Pt-2]([C]#[N+]Cc2ccccc2)([C]#[N+]Cc2ccccc2)[c]2ccc(C)cc2)cc1 [complex 2b, [(p-tolyl)2(CNR)2] (R=benzyl)]
IC50 [1, 11]: 55.3 ± 2.19 µM
IC50 [2, 14]: 62.3 ± 1.67 µM
IC50 [4, 18]: 31.2 ± 2.27 µM

Cc1cc[c]([Pt-2]([C]#[N+]C2CCCCC2)([C]#[N+]C2CCCCC2)[c]2ccc(C)cc2)cc1 [complex 2c, [(p-tolyl)2(CNR)2] (R=cyclohexyl)]
IC50 [1, 11]: 67.1 ± 1.54 µM
IC50 [2, 14]: 72.4 ± 2.32 µM
IC50 [4, 18]: 44.3 ± 1.38 µM

C=CC[P+](c1ccccc1)(c1ccccc1)[Pt-2]([S]c1ccccn1)([S]c1ccccn1)[P+](CC=C)(c1ccccc1)c1ccccc1 [complex 3a, trans-[Pt(PPh2allyl)2(κ^1—S—SR)2]]
IC50 [1, 12]: 6.23 µM
shift in the mobility of the plasmid [8]: a little shift
IC50 [2, 15]: 4.8 µM
percentage of the cells in early apoptotic phase ([6]; 2.5 μM): 11.0%
percentage of the cells in early apoptotic phase ([6]; 5 μM): 40.8%
percentage of the cells in early apoptotic phase ([6]; 10 μM): 62.9%
ROS production (MFI/MFI0) [5]: moderately induce ROS
genotoxic effect (comet tail) ([9]; MCF-7, 10 and 50 μM): strong genotoxic ability
IC50 [3]: 38.4 ± 2.06 µM
IC50 [4, 17]: 4.31 µM
effect on the cell cycle [10]: no clear effect

C=CC[P+](c1ccccc1)(c1ccccc1)[Pt-2]([Cl])([Cl])[P+](CC=C)(c1ccccc1)c1ccccc1 [complex A, cis-[Pt(PPh2allyl)2Cl2]]
IC50 [1, 12]: 34.5 ± 1.53 µM
IC50 [2, 15]: 19 ± 1.24 µM
IC50 [3]: 68.7 ± 1.21 µM
IC50 [4, 17]: 22.5 ± 1.62 µM

COc1cccc2c1C(=O)c1c(O)c3c(c(O)c1C2=O)C[C@@](O)(C(=O)CO)C[C@@H]3O[C@H]1C[C@H](N)[C@H](O)[C@H](C)O1 [doxorubicin, reference compound]
percentage of degraded DNA in the tail ([9]; MCF-7, positive control, vs untreated cells): remarkably increased
